Laboratory results from patent US20240218066A1, “USE OF ANTI-PD-1 ANTIBODY IN COMBINATION WITH FIRST-LINE CHEMOTHERAPY IN TREATMENT OF ADVANCED NON-SMALL CELL LUNG CANCER” (SHANGHAI JUNSHI BIOSCIENCES CO., LTD., priority 2021, published 2024).

Assays:
[1] = tested on: patients with untreated advanced NSCLC; experiment: Phase III clinical study, efficacy assessed by the investigator according to RECIST 1.1; assay type: in vivo, human; parameters: reduction of the risk of progression or death, compared to standard chemotherapy / increase of PFS rate at 6 months compared to control group / increase of PFS rate at 12 months compared to control group / increase in ORR compared to control group: concentration or dose not given beside the values
Procedure: (§1) About 450 patients with advanced NSCLC not accompanied by EGFR-sensitive mutations and ALK fusions were randomly divided into two groups according to a 2:1 ratio, with the test group receiving toripalimab in combination with first-line standard chemotherapy and the control group receiving placebo in combination with first-line standard chemotherapy. Stratification was performed according to PD-L1 expression (TC≥1% vs TC<1%), smoking status (frequent smoking vs no smoking or little smoking), and pathological type (squamous cell carcinoma vs non-squamous cell carcinoma).
(§2) After randomization, the patients were subjected to treatment in the induction stage for 4-6 cycles, during which the patients received toripalimab/placebo+first-line standard chemotherapy. After the induction stage was over, the patients were subjected to treatment in the maintenance stage, during which patients with squamous cell carcinoma continued to receive toripalimab/placebo treatment until progressive disease, and patients with non-squamous cell carcinoma continued to receive toripalimab/placebo+pemetrexed treatment until progressive disease.
(§3) Tumor assessments were performed once every 6 weeks for the first 12 months of the study stage according to RECIST 1.1 and iRECIST; after 12 months, tumor assessments were performed every 9 weeks until progressive disease, initiation of a new anti-tumor therapy, intolerable toxicity, withdrawal of informed consent or death, 2 years of treatment with toripalimab, or other reasons as specified in the protocol, whichever occurred first.
(§4) Eligible subjects must (1) be patients with histologically and/or cytologically confirmed locally advanced (stage IIIB or IIIC) and stage IV non-small cell lung cancer that is inoperable and cannot receive radical concurrent chemoradiotherapy; (2) have at least one measurable lesion (according to RECIST 1.1); (3) have not received any systemic treatment (patients with recurrence more than 6 months after completion of prior neoadjuvant/adjuvant therapy may also be enrolled); (4) be aged between 18 and 75 years; (5) have ECOG of 0-1; (6) have an expected survival of ≥3 months; and (7) be available to provide tissue specimens for PD-L1 testing.
(§5) Unless otherwise specified, the efficacy analysis was based on the ITT set, which was analyzed by groups according to the treatment regimen to which patients were assigned at randomization.
(§6) The progression-free survival rate and median progression-free survival of the JS001+first-line standard treatment group and the placebo+first-line standard treatment group at different time points after the start of treatment were estimated by the Kaplan-Meier method, and Kaplan-Meier curves were plotted. The 95% confidence interval for progression-free survival rate at different time points (6 months and 1 year) was estimated using the Greenwood formula. The 95% confidence interval for median progression-free survival was estimated using the Brookmeyer-Crowley method where the log-log function conversion was used to reach normal approximation. Statistical test was performed on the inter-group difference by a stratified log-rank method for the total population. Statistical test was performed on the inter-group difference by a non-stratified log-rank method for the subpopulations. A stratified COX proportional hazards model was used to estimate the inter-group hazard ratio (HR) and the corresponding 95% confidence interval, and the tied events were processed by an exact method. Stratification analysis was performed using 3 stratification factors in the randomization process, including: (1) PD-L1 expression (TC≥1% vs TC<1%); (2) smoking status (frequent smoking vs no smoking or little smoking); and (3) pathological type (squamous cell carcinoma vs non-squamous cell carcinoma).
(§7) For analysis of secondary efficacy endpoints OS, DOR, and TTR, the method described above as applied to the primary efficacy endpoint PFS was used. […]

[2] = tested on: patients with untreated advanced NSCLC; experiment: Phase III clinical study, efficacy assessed by the BIRC according to RECIST 1.1; assay type: in vivo, human; parameters: reduction of the risk of progression or death, compared to standard chemotherapy / increase of PFS rate at 6 months compared to control group / increase of PFS rate at 12 months compared to control group / increase in ORR compared to control group: concentration or dose not given beside the values
Procedure: as §1, §2, §3, §4, §5, §6, §7

[3] = overall population, RECIST v1.1
[4] = patients with BOR reaching CR or PR, overall population
[5] = patients with non-squamous cell carcinoma
[6] = patients with non-squamous cell carcinoma, listed as test group
[7] = patients with squamous cell carcinoma
[8] = patients with squamous cell carcinoma, listed as test group

JS001 + standard first-line chemotherapy: toripalimab 240 mg Q3W plus albumin-bound paclitaxel+carboplatin (squamous) or pemetrexed+cisplatin/carboplatin (non-squamous)
PFS rate at 6 months ([1]; ITT): 62.3% | PFS rate at 12 months ([1]; ITT): 32.6% | increase of PFS rate at 6 months compared to control group ([1]; ITT): 20.8% | increase of PFS rate at 12 months compared to control group ([1]; ITT): 19.5% | HR for PFS (test vs control) ([1]; ITT population, RECIST 1.1): 0.58 | PFS prolonged by, compared to standard chemotherapy ([1]; ITT population, RECIST 1.1): 2.7 months | reduction of the risk of progression or death, compared to standard chemotherapy ([1]; ITT population, RECIST 1.1): 42% | median PFS ([1]; ITT population, RECIST 1.1, interim analysis as of Nov. 17, 2020): 8.3 months | Best overall response: Complete response (CR) ([1]; non-squamous cell carcinoma): 0 N (%) | Best overall response: Deletion ([1]; non-squamous cell carcinoma): 8 (4.9) N (%) | Best overall response: Not evaluable (NE) ([1]; non-squamous cell carcinoma): 0 N (%) | Best overall response: Partial response (PR) ([1]; non-squamous cell carcinoma): 95 (58.6) N (%) | Best overall response: Progressive disease (PD) ([1]; non-squamous cell carcinoma): 5 (3.1) N (%) | Objective response rate (ORR) ([1]; non-squamous cell carcinoma): 95 (58.6) N (%) | DCR ([1]; overall population): 90.9% | DOR prolonged by, compared to control group ([1]; overall population): 4.1 months | HR for DOR (test vs control) ([1]; overall population): 0.56 | increase in ORR compared to control group ([1]; overall population): 21.7% | ORR [1, 3]: 63.4% | median DOR [1, 4]: 8.3 months | median TTR [1, 4]: 1.5 months | HR for DOR (test vs control) [1, 5]: 0.63 | HR for PFS (test vs control) [1, 5]: 0.59 | ORR [1, 5]: 58.6% | increase in ORR compared to control group [1, 5]: 32.1% | median DOR (95% confidence interval) [1, 5]: 8.6 (6.9, NE) months | median TTR (95% confidence interval) [1, 5]: 1.4 (1.4, 1.9) months | median PFS ([1]; patients with non-squamous cell carcinoma, RECIST 1.1): 8.4 months | median DOR (95% confidence interval) [1, 6]: 8.6 months | median TTR (95% confidence interval) [1, 6]: 1.4 months | HR for DOR (test vs control) [1, 7]: 0.46 | HR for PFS (test vs control) [1, 7]: 0.55 | ORR [1, 7]: 68.7% | increase in ORR compared to control group [1, 7]: 9.8% | median DOR (95% confidence interval) [1, 7]: 6.9 (4.5, NE) months | median TTR (95% confidence interval) [1, 7]: 1.5 (1.4, 1.6) months | median PFS ([1]; patients with squamous cell carcinoma, RECIST 1.1): 7.1 months | median DOR (95% confidence interval) [1, 8]: 6.9 months | median TTR (95% confidence interval) [1, 8]: 1.5 months | Best overall response: Complete response (CR) ([1]; squamous cell carcinoma): 0 N (%) | Best overall response: Deletion ([1]; squamous cell carcinoma): 8 (5.4) N (%) | Best overall response: Not evaluable (NE) ([1]; squamous cell carcinoma): 1 (0.7) N (%) | Best overall response: Partial response (PR) ([1]; squamous cell carcinoma): 101 (68.7) N (%) | Best overall response: Progressive disease (PD) ([1]; squamous cell carcinoma): 6 (4.1) N (%) | Objective response rate (ORR) ([1]; squamous cell carcinoma): 101 (68.7) N (%) | PFS rate at 6 months ([2]; ITT): 65.3% | PFS rate at 12 months ([2]; ITT): 38.9% | increase of PFS rate at 6 months compared to control group ([2]; ITT): 16% | increase of PFS rate at 12 months compared to control group ([2]; ITT): 22.7% | HR for PFS (test vs control) ([2]; ITT population): 0.61 | PFS prolonged by, compared to standard chemotherapy ([2]; ITT population): 2.5 months | reduction of the risk of progression or death, compared to standard chemotherapy ([2]; ITT population): 39% | median PFS ([2]; ITT population, RECIST 1.1): 8.3 months | Best overall response: Complete response (CR) ([2]; non-squamous cell carcinoma): 3 (1.9) N (%) | Best overall response: Deletion ([2]; non-squamous cell carcinoma): 8 (4.9) N (%) | Best overall response: Non-complete response/non-progressive disease (Non CR/Non PD) ([2]; non-squamous cell carcinoma): 0 N (%) | Best overall response: Not evaluable (NE) ([2]; non-squamous cell carcinoma): 0 N (%) | Best overall response: Partial response (PR) ([2]; non-squamous cell carcinoma): 94 (58.0) N (%) | Best overall response: Progressive disease (PD) ([2]; non-squamous cell carcinoma): 8 (4.9) N (%) | Duration of response (DOR), Median (95% confidence interval) ([2]; non-squamous cell carcinoma): NE (6.9, NE) | Objective response rate (ORR) ([2]; non-squamous cell carcinoma): 97 (59.9) N (%) | DCR ([2]; overall population): 90.9% | increase in ORR compared to control group ([2]; overall population): 20.8% | ORR [2, 3]: 65.7% | HR for PFS (test vs control) [2, 5]: 0.55 | ORR [2, 5]: 59.9% | increase in ORR compared to control group [2, 5]: 27.4% | median PFS [2, 5]: 10.3 months | HR for PFS (test vs control) [2, 7]: 0.63 | ORR [2, 7]: 72.1% | increase in ORR compared to control group [2, 7]: 13.3% | median PFS [2, 7]: 6.9 months | Best overall response: Complete response (CR) ([2]; squamous cell carcinoma): 0 N (%) | Best overall response: Deletion ([2]; squamous cell carcinoma): 8 (5.4) N (%) | Best overall response: Non-complete response/non-progressive disease (Non CR/Non PD) ([2]; squamous cell carcinoma): 1 (0.7) N (%) | Best overall response: Not evaluable (NE) ([2]; squamous cell carcinoma): 0 N (%) | Best overall response: Partial response (PR) ([2]; squamous cell carcinoma): 106 (72.1) N (%) | Best overall response: Progressive disease (PD) ([2]; squamous cell carcinoma): 3 (2.0) N (%) | Duration of response (DOR), Median (95% confidence interval) ([2]; squamous cell carcinoma): 5.7 (5.2, 9.5) | Objective response rate (ORR) ([2]; squamous cell carcinoma): 106 (72.1) N (%)
